Assay results reported in ChEMBL document CHEMBL1155191, “Simple dihydrosphyngosine analogues with potent activity against MDR-Mycobacterium tuberculosis” (2009).
In brackets after ≈: the same amount, converted by molar mass.

How the values were obtained:
Type in all cases: functional
[1] = test system: Mycobacterium tuberculosis; assay: Antimycobacterial activity against Mycobacterium tuberculosis H37Rv ATCC 27294 after 5 to 7 days by microplate alamar blue assay
[2] = test system: Mycobacterium tuberculosis; assay: Ratio of ethambutol MIC to compound MIC for Mycobacterium tuberculosis H37Rv ATCC 27294
[3] = test system: Mycobacterium tuberculosis; assay: Antimycobacterial activity against Mycobacterium tuberculosis CIB99 after 5 to 7 days by microplate alamar blue assay
[4] = test system: Mycobacterium tuberculosis; assay: Ratio of ethambutol MIC to compound MIC for Mycobacterium tuberculosis CIB99

Structure (SMILES): CCCCCCCCCCCCCCC(O)CNCc1ccccc1 (stereo not given)
- MIC [1]: 36 µM (≈ 12.5 µg/mL)
- Ratio [2]: 0.28
- MIC [3]: 72 µM (≈ 25 µg/mL)
- Ratio [4]: >2.2

Structure (SMILES): CCCCCCCCCCCCCCC(COCc1ccccc1)NC(=O)CCC(=O)O (stereo not given)
- MIC [1]: 140 µM (≈ 62.7 µg/mL)
- Ratio [2]: 0.07
- MIC [3]: 140 µM (≈ 62.7 µg/mL)
- Ratio [4]: >1.1

Structure (SMILES): CCCCCCCCCCCCCCC(COCc1ccccc1)NCC (stereo not given)
- MIC [1]: 16.6 µM (≈ 6.24 µg/mL)
- Ratio [2]: 0.6
- MIC [3]: 16.6 µM (≈ 6.24 µg/mL)
- Ratio [4]: >9.5

Structure (SMILES): CCCCCCCCCCCCCCC(O)CNC1CCCCC1 (stereo not given)
- MIC [1]: 33 µM (≈ 11.2 µg/mL)
- Ratio [2]: 0.3
- MIC [3]: 11 µM (≈ 3.74 µg/mL)
- Ratio [4]: >14

Structure (SMILES): CCCCCCCCCCCCCCC(COCc1ccccc1)NCC(=O)OCC (stereo not given)
- MIC [1]: 72 µM (≈ 31.2 µg/mL)
- Ratio [2]: 0.13
- MIC [3]: 72 µM (≈ 31.2 µg/mL)
- Ratio [4]: >2.2

Structure (SMILES): CCCCCCCCCCCCCCC(CN(CC)CC)NC(=O)OC(C)(C)C (stereo not given)
- MIC [1]: 15.2 µM (≈ 6.27 µg/mL)
- Ratio [2]: 0.65
- MIC [3]: 15.2 µM (≈ 6.27 µg/mL)
- Ratio [4]: >10

Structure (SMILES): CCCCCCCCCCCCCCC(CNC(=O)CCCC(=O)O)NC(=O)OC(C)(C)C (stereo not given)
- MIC [1]: 133 µM (≈ 62.6 µg/mL)
- Ratio [2]: 0.07
- MIC [3]: 133 µM (≈ 62.6 µg/mL)
- Ratio [4]: >1.2

Structure (SMILES): CCCCCCCCCCCCCCC(CN(CC(=O)OCC)CC(=O)OCC)NC(=O)OC(C)(C)C (stereo not given)
- MIC [1]: 59 µM (≈ 31.2 µg/mL)
- Ratio [2]: 0.17
- MIC [3]: 59 µM (≈ 31.2 µg/mL)
- Ratio [4]: >2.7

Structure (SMILES): CCCCCCCCCCCCCCC(COCc1ccccc1)NC(=O)CCCC(=O)O (stereo not given)
- MIC [1]: 68 µM (≈ 31.4 µg/mL)
- Ratio [2]: 0.14
- MIC [3]: 68 µM (≈ 31.4 µg/mL)
- Ratio [4]: >2.3

Structure (SMILES): CCCCCCCCCCCCCCC(N)CN(CC)CC (stereo not given)
- MIC [1]: 4 µM (≈ 1.25 µg/mL)
- Ratio [2]: 2.5
- MIC [3]: 8 µM (≈ 2.5 µg/mL)
- Ratio [4]: >19

Structure (SMILES): CCCCCCCCCCCCCCC(CN)NC(=O)OC(C)(C)C (stereo not given)
- MIC [1]: 30 µM (≈ 10.7 µg/mL)
- Ratio [2]: 0.3
- MIC [3]: 30 µM (≈ 10.7 µg/mL)
- Ratio [4]: >5.2

Structure (SMILES): CCCCCCCCCCCCCCC(N)CO (stereo not given)
- MIC [1]: 24 µM (≈ 6.18 µg/mL)
- Ratio [2]: 0.41
- MIC [3]: 49 µM (≈ 12.6 µg/mL)
- Ratio [4]: >16

Structure (SMILES): CCCCCCCCCCCCCCC(N)CN (stereo not given)
- MIC [1]: 12.6 µM (≈ 3.23 µg/mL)
- Ratio [2]: 0.8
- MIC [3]: 12.6 µM (≈ 3.23 µg/mL)
- Ratio [4]: >12

Structure (SMILES): CO[C@H]1/C=C/O[C@@]2(C)Oc3c(C)c(O)c4c(O)c(c(/C=N/N5CCN(C)CC5)c(O)c4c3C2=O)NC(=O)/C(C)=C\C=C\[C@H](C)[C@H](O)[C@@H](C)[C@@H](O)[C@@H](C)[C@H](OC(C)=O)[C@@H]1C [RIFAMPIN]
- MIC [1]: 0.152 µM (≈ 0.125 µg/mL)
- Ratio [2]: 650
- MIC [3]: > 2.43 µM
- Ratio [4]: 65

Structure (SMILES): CCCCCCCCCCCCCCC(N)COCc1ccccc1 (stereo not given)
- MIC [1]: 3.6 µM (≈ 1.25 µg/mL)
- Ratio [2]: 2.8
- MIC [3]: 3.6 µM (≈ 1.25 µg/mL)
- Ratio [4]: >43

Structure (SMILES): CCCCCCCCCCCCCCC(COCc1ccccc1)N(CC)CC (stereo not given)
- MIC [1]: 3.1 µM (≈ 1.25 µg/mL)
- Ratio [2]: 3.2
- MIC [3]: 3.1 µM (≈ 1.25 µg/mL)
- Ratio [4]: >50

Structure (SMILES): CC[C@@H](CO)NCCN[C@@H](CC)CO [ETHAMBUTOL]
- MIC [1]: 9.9 µM (≈ 2.02 µg/mL)
- Ratio [2]: 1
- MIC [3]: > 158 µM
- Ratio [4]: 1

Structure (SMILES): CCCCCCCCCCCCCCC(CNCC)NC(=O)OC(C)(C)C (stereo not given)
- MIC [1]: 32 µM (≈ 12.3 µg/mL)
- Ratio [2]: 0.3
- MIC [3]: 32 µM (≈ 12.3 µg/mL)
- Ratio [4]: >4.9

Structure (SMILES): CCCCCCCCCCCCCCC(CO)NC(=O)OC(C)(C)C (stereo not given)
- MIC [1]: 84 µM (≈ 30 µg/mL)
- Ratio [2]: 0.12
- MIC [3]: 84 µM (≈ 30 µg/mL)
- Ratio [4]: >5

Structure (SMILES): CCCCCCCCCCCCCCC(CO)N(CC)CC (stereo not given)
- MIC [1]: 20 µM (≈ 6.27 µg/mL)
- Ratio [2]: 0.5
- MIC [3]: 40 µM (≈ 12.5 µg/mL)
- Ratio [4]: >3.9
